Structures can show the parent of a compound that is named as a salt. Where two headings read alike, the source gives them in different places. Blank lines part the entries; values can stand above or below the molecule they belong to.
How the values were obtained:
[1] = 20° C.; cited from earlier work
[2] = Solubility of asenapine maleate in a variety of solvents; assay type: physicochemical; conditions: organic solvent or mixture, read-out: solubility of asenapine maleate, Concentration
Method: The asenapine or a pharmaceutically acceptable salt thereof is dissolved in the organic phase or dispersed as a solid in the organic phase. In order to effectively dissolve the asenapine or a pharmaceutically acceptable salt thereof in the organic phase, a solution of the active principle in a solvent S2 can be provided, and this solution can be combined with the solution of the polymer in the organic solvent S1. It will be understood that, in this case, the solvents S1 and S2 should be different solvents. It is also possible to add the active principle to the solvent S2 in an amount that only a part of it is dissolved in S2, and a part of it remains dispersed as a solid in the solvent S2. Using the process described herein, the active principle can also be encapsulated/embedded in the polymer at a high efficiency in this case. […] Nevertheless, the following table summarizes the solubility of asenapine maleate in a variety of solvents.

serotonin receptors = conditions: rank among receptor classes; cited from earlier work
muscarinic receptors = conditions: cited from earlier work
[3] = cited from earlier work

Molecule: CC(C)=O [acetone]
solubility in water [1]: soluble

solubility ([2]; DMSO): 700 mg/mL
solubility ([2]; THF): 100 mg/mL
solubility ([2]; solvent EMK): 50 mg/mL
solubility ([2]; solvent NMP): 700 mg/mL
solubility ([2]; solvent acetone): 67 mg/mL
solubility ([2]; solvent benzyl alcohol): 500 mg/mL
solubility ([2]; solvent benzyl benzoate): 7 mg/mL
solubility ([2]; solvent dimethycarbonate): 7 mg/mL
solubility ([2]; solvent dimethylacetamide): 500 mg/mL
solubility ([2]; solvent ethanol): 100 mg/mL
solubility ([2]; solvent ethyl acetate): 10 mg/mL
solubility ([2]; solvent ethyl benzoate): 10 mg/mL
solubility ([2]; solvent ethyl formate): 100 mg/mL
solubility ([2]; solvent glycofurol): 270 mg/mL
solubility ([2]; solvent isopropanol): 7 mg/mL
solubility ([2]; solvent isopropyl acetate): 9 mg/mL
solubility ([2]; solvent isopropyl formate): 100 mg/mL
solubility ([2]; solvent methyl acetate): 25 mg/mL
solubility ([2]; solvent methyl benzoate): 20 mg/mL
Molecule: CN1CC2c3ccccc3Oc3ccc(Cl)cc3C2C1 (stereo not shown) [asenapine maleate]

Molecule: CN1CC2c3ccccc3Oc3ccc(Cl)cc3C2C1 (stereo not drawn) [asenapine, trans-5-chloro-2,3,3a,12b-tetrahydro-2-methyl-1-H-dibenz[2,3:6,7]oxepino[4,5-c]pyrrole]
affinity for blocking serotonin receptors (serotonin receptors): highest affinity
affinity for muscarinic receptors (muscarinic receptors): minimal affinity
bioavailability ([3]; oral formulations): 2%
bioavailability ([3]; sublingual tablets): 35%

Molecule: glycofurol
solubility in water [1]: soluble

Reference: US20170231957A1, “INJECTABLE FORMULATIONS OF ASENAPINE” (ALRISE Biosystems GmbH, priority 2014, published 2017)
